Measured values from patent publication US10376498B2, “3-alkyl pyridinium compound from red sea sponge with potent antiviral activity” (priority 2014, dated 2019).

Biological target: T1, West Nile Virus NS3 protease (West Nile virus, UniProt P06935, DELINS1467-1501GGGGSGGGG)
T1 construct: truncated form of West Nile NS3 protease (residues 1-186); purchased AnaSep (AnaSpec), San Jose, Calif., USA
T1 sequence (P06935 with tags, fused parts or gaps DELINS1467-1501GGGGSGGGG): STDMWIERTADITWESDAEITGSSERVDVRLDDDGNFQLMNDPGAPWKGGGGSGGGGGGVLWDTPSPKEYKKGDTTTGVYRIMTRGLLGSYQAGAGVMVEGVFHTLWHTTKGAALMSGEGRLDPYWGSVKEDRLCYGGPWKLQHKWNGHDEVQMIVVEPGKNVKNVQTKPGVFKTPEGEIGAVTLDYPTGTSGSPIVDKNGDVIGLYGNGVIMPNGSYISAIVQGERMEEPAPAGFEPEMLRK
Assay: West Nile Virus NS3 protease inhibition assay (SensoLyte 440 kit)
Format: biochemical
Settings: LOPAC compounds clustering with fraction 2
Protocol: The SPE fraction was further fractionated in order to isolate the prominent peaks identified by LC-MS using the technique of HPLC and determined retention times.
The West Nile Virus NS3 protease inhibition assay was carried out using the commercial kit SensoLyte® 440 West Nile Virus Protease Assay Kit (AnaSep, San Jose, Calif., USA). The protease is a truncated form of West Nile NS3 protease (residues 1-186) connected to it is NS2B cofactor (residues 49-96) by the linker sequence, […]. Protease activity was assessed by its ability to cleave the fluorogenic peptide Pyr-RTKRAMC, and the subsequent production of free AMC (7-amino-4-methylcoumarin) fluorophores. All extracts and controls were performed with three replicates in a 384-well plate format, each with a total reaction mixture of 33 μl. To begin, the test extracts and protease solution were incubated at 37° C. for 10 min before the addition of the pre-heated substrate. After substrate addition and gentle mixing the reaction was incubated at 37° C. for one hour. The fluorophore was detected with the use of a SpectraMax® Paradigm® Multimode Microplate Detection Platform (Molecular Devices, Sunnyvale, Calif., USA) by scanning at 354 nm excitation wavelength and 442 n emission wavelength.

With `C[C@]12C[C@H](O)[C@H]3[C@@H](CCC4=CC(=O)CC[C@@]43C)[C@@H]1CC[C@@H]2C(=O)CO` (single isomer, unassigned) [Corticosterone] the “inhibition of the WNV NS protease (in words)” value (shortened to “inhibition”) was “no inhibition”.
In the case of `Clc1nccc2c1ccc1ccccc12` [CBIQ], the “inhibition” value is reported as “no inhibition”.
`C[C@@H]1C(=O)NC2=Nc3cccc(Cl)c3CN21` [Quazinone] was tested, and the “inhibition” value was “no inhibition”.
In the case of `O.O.O=c1c(O)c(-c2ccc(O)c(O)c2)oc2cc(O)cc(O)c12` [Quercetin dehydrate], the “inhibition” value is reported as “no inhibition”.
`CCN1/C(=C/C(C)=O)Sc2ccc(OC)cc21` [TG003] was tested, and the “inhibition” value was “no inhibition”.
